Data published in PubChem BioAssay (NCI).
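Each compound was tested at five concentrations against cells in 96-well plates for 48 hours. GI50: concentration for 50% inhibition of growth. TGI denotes the concentration required for complete inhibition of growth.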

Columns and labels:
Experiment in all cases: DTP human tumour cell line panel, 48 h
CAKI-1 renal = tested on: CAKI-1 renal
EKVX NSCLC = tested on: EKVX NSCLC
HS 578T breast = tested on: HS 578T breast
HT29 colon = tested on: HT29 colon
KM12 colon = tested on: KM12 colon
NCI-H23 lung = tested on: NCI-H23 lung
OVCAR-3 ovarian = tested on: OVCAR-3 ovarian
OVCAR-5 ovarian = tested on: OVCAR-5 ovarian
T-47D breast = tested on: T-47D breast
UO-31 renal = tested on: UO-31 renal

Structure (SMILES)	GI50 (CAKI-1 renal) [µM]	TGI (CAKI-1 renal) [µM]	GI50 (EKVX NSCLC) [µM]	TGI (EKVX NSCLC) [µM]	GI50 (HS 578T breast) [µM]	TGI (HS 578T breast) [µM]	GI50 (HT29 colon) [µM]	TGI (HT29 colon) [µM]	GI50 (KM12 colon) [µM]	TGI (KM12 colon) [µM]	GI50 (NCI-H23 lung) [µM]	TGI (NCI-H23 lung) [µM]	GI50 (OVCAR-3 ovarian) [µM]	TGI (OVCAR-3 ovarian) [µM]	GI50 (OVCAR-5 ovarian) [µM]	TGI (OVCAR-5 ovarian) [µM]	GI50 (T-47D breast) [µM]	TGI (T-47D breast) [µM]	GI50 (UO-31 renal) [µM]	TGI (UO-31 renal) [µM]
O=C1/C(=C/c2ccccc2)CN(C(=O)c2cccnc2)C/C1=C\c1ccccc1	2.83	10.3	2.86	11.1	5.56	41.5	0.241	0.563	0.271	0.765	1.83	5.19	0.505	1.71	2	5.13	2.92	12.2	1.4	2.9
Cc1ccccc1N=Nc1ccc(NC(=O)c2ccnn2C)c(C)c1	55.4	> 100	7.72	> 100	22.1	> 100	> 100	> 100	> 100	> 100	18.7	> 100	> 100	> 100	> 100	> 100	9.9	> 100	11.2	> 100
Cc1c(-c2c(-c3ccc(F)o3)sc3ncnc(O[C@H](Cc4ccccc4OCc4ccnn4CC(F)(F)F)C(=O)O)c23)ccc(OCCN2CCN(C)CC2)c1Cl	6.21	19.2	4.12	14.2	1.53	9.42	4.54	9.41	4	7.99	2.59	7.6	3.82	7.67	4.81	14.8	5.14	16.3	6.25	18.6
N#Cc1nc2c(S(=O)(=O)c3ccccc3)c(N)n(Cc3cccnc3)c2nc1C#N	7.47	> 100	81.9	> 100	1.81	5.52	> 100	> 100	> 100	> 100	40	> 100	3.48	> 100	> 100	> 100	5.8	52.1	13.5	> 100
O=C(CN1CCN(CCCOc2c(-c3ccccc3)oc3ccccc3c2=O)CC1)Nc1ccc(Cl)cc1C(=O)c1ccccc1Cl	12.9	36.9	22.7	> 100	8.45	60.8	3.09	> 100	5.73	29.9	12.4	41.9	5.79	19.5	27.2	90.8	6.7	33.9	9.28	29.4
COc1cc2cc(Oc3ccc(NC(=O)Nc4cccc(C(F)(F)F)c4)cc3)c(C)nc2cc1OC	1.32	4.29	1.48	6.46	1.44	4.22	2.05	6.26	1.42	5.92	1.7	7.41	2.04	8.07	3.02	13	1.61	6.68	1.98	10.8
Cn1c(/C=C(\C#N)c2ccccc2)nc2c(N3CCOCC3)nc(Cl)nc21	0.824	2.21	1.42	3.04	1.69	5.64	0.386	1.47	1.87	3.77	1.63	3.2	0.673	1.88	1.42	2.99	1.23	3.75	0.553	1.88
C#CCC(Cc1cnc2nc(N)nc(N)c2n1)c1ccc(C(=O)N[C@@H](CCC(=O)O)C(=O)O)cc1 (some centres not stated)	< 0.01	> 100		> 100	> 100	> 100	< 0.01	> 100	< 0.01	> 100	< 0.0174	> 100	< 0.0135	> 100	< 0.01	> 100	> 100	> 100	< 0.01	> 100
Nc1c(Br)cc(Br)c2c1[nH]c(=O)c1ccccc12	3.69	21.3	1.36	11.1	3.07	30	> 29.7	> 100	> 100	> 100	20.7	> 100	11.5	43.4	25.7	> 100	2.41	17.5	2.17	5.9
CC1(C)N=C(N)N=C(N)N1c1ccc(OCCCCOc2ccc(S(=O)(=O)F)cc2)c(Cl)c1	3.7	> 47.2			4.85	34.3	0.0519	13.4	0.279	11.7	0.115	19.5	0.655	16.6	0.302	22.7	1.14	13.2	24.4	> 100
C/C(=N\Nc1cc(C)c2cc(C)ccc2n1)c1ccccn1		0.261			1.16	6.87	< 0.0407	1.65	0.0772	1.79	0.139	10.2	< 0.0206	1.31		2.08	< 0.0464	1.46	< 0.0447	0.322
c1ccc2[nH]c(-c3ccc(NN=Nc4ccncc4)cc3)nc2c1	5.2	> 100	11.2	54.1	> 100	> 100			23	> 100			15.1	> 100	> 100	> 100	93	> 100	43.6	> 100
C=C1C(=O)O[C@H]2[C@H]1CC/C(Cn1cc(-c3cc(C(F)(F)F)cc(C(F)(F)F)c3)nn1)=C\CC[C@@]1(C)O[C@@H]21			1.5	2.95	1.03	4.23	0.19	0.486	1.04	2.53	1.12	2.65	0.152	0.358	1.1	2.48	0.33	1.62	0.382	1.58
